Values joined by “and” are separate entries in the source; they are usually repeats but may differ in a detail not shown here. Equal entries are not always repeated.
Key:
[1] = target: DDR2 (Homo sapiens, UniProt Q16832); assay: Kinase activity screening (SelectScreen), DDR2; type: biochemical
[2] = target: various kinases (Homo sapiens, UniProt O00311); assay: LanthaScreen Eu Kinase Binding Assay, panel of 486 biochemical kinase assays; settings: CDC7/DBF4
[3] = target: various kinases (Homo sapiens, UniProt Q04771, R206H); assay: as above; settings: ACVR1 (ALK2) R206H
various kinases (Homo sapiens, UniProt Q04771, R206H), sequence (Q04771 21-509 R206H): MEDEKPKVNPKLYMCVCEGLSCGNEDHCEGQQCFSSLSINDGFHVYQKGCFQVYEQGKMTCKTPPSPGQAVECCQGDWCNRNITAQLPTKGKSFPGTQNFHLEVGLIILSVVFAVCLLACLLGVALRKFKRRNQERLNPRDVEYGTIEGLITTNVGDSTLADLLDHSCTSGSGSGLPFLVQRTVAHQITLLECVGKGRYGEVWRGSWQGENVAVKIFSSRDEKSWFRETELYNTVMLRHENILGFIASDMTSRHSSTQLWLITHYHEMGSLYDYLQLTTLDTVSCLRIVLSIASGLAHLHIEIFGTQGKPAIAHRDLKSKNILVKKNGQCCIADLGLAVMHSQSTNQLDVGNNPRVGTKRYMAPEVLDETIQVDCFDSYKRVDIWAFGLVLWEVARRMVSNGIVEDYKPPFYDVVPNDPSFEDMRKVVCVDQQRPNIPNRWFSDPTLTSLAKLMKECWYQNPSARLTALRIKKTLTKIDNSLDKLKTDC

[4] = target: various kinases (Homo sapiens, UniProt P10721, T670I/V559D); assay: as above; settings: KIT V559D T670I
[5] = target: various kinases (Homo sapiens, UniProt Q13555); assay: as above; settings: CAMK2G (CaMKII gamma)
various kinases (Homo sapiens, UniProt Q13555), sequence (Q13555 whole entry): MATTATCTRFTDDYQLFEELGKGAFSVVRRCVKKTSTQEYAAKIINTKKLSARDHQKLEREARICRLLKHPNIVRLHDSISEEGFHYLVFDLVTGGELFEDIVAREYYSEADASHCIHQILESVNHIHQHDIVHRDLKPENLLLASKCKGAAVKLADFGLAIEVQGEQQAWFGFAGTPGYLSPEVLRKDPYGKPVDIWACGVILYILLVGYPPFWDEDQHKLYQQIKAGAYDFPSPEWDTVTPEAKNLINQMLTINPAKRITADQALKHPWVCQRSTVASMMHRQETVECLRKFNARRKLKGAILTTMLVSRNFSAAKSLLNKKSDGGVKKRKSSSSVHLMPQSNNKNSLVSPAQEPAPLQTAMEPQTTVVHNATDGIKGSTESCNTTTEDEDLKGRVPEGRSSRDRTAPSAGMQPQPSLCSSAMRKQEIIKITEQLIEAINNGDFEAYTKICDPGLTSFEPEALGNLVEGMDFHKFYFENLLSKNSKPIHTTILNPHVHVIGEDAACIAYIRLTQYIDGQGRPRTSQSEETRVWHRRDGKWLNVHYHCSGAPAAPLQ

[6] = target: various kinases (Homo sapiens, UniProt Q02750); assay: as above; settings: MAP2K1 (MEK1)
various kinases (Homo sapiens, UniProt Q02750), sequence (Q02750 whole entry): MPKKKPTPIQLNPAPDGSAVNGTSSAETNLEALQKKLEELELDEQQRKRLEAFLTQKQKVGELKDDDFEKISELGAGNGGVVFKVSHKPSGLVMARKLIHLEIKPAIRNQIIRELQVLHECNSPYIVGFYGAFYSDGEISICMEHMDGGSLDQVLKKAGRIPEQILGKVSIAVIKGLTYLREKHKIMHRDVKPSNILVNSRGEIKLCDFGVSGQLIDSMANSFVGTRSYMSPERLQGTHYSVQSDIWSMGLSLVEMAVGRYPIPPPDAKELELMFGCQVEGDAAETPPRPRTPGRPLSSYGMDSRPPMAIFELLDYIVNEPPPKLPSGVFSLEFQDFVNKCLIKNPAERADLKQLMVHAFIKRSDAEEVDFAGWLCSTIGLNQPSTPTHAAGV

[7] = target: various kinases (Homo sapiens, UniProt P37023); assay: as above; settings: ACVRL1 (ALK1)
various kinases (Homo sapiens, UniProt P37023), sequence (P37023 22-503): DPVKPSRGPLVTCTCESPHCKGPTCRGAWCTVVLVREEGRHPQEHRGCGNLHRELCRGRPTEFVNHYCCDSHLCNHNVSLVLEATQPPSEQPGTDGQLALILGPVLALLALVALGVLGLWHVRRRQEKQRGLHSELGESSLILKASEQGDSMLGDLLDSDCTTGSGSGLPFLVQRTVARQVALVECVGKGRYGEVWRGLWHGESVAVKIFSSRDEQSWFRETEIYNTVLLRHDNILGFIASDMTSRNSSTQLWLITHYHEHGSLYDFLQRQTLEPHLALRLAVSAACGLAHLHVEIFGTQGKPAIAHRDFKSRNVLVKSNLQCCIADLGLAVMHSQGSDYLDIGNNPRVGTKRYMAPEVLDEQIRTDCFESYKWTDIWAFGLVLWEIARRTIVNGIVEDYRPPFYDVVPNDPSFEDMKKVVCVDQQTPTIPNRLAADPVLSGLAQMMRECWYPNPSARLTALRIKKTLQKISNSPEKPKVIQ

[8] = tested on: non-neoplastic human fibroblast cells (HFF-SCC058); assay: Immunofluorescence for gamma-tubulin (centriole number), fibroblasts; type: cell-based; settings: 100nM and 500nM
Experimental: (§1) The cells were then blocked in blocking buffer (5% BSA (Jackson Immuno Research Laboratories Inc., USA) in PBST) for 1 hour at RT. The primary antibody ([…] 1:500, Sigma, USA) diluted in 1% BSA in PBST was then added and incubated at 4°C overnight. Then, the cells were washed with 1X PBS thrice. Secondary antibody (Anti-Rabbit IgG (H+L) F (ab’) 2, 1:500, Sigma, USA) diluted in 1% BSA in PBST was added and incubated at RT for 2 hours. Three time washes with 1X PBS were performed. Then, 1mL of DAPI (Thermo Fisher Scientific, USA) in PBS (0.5μl of DAPI in 10 ml PBS) was added to the cells and incubated for 10 min at RT. Finally, 3 time washes with 1X PBS were performed and slides were mounted using Mounting Medium (Thermo Fisher Scientific, USA).

[9] = target: hERG K+ channel (Homo sapiens, UniProt Q12809); assay: biochemical
hERG K+ channel, sequence (Q12809 whole entry): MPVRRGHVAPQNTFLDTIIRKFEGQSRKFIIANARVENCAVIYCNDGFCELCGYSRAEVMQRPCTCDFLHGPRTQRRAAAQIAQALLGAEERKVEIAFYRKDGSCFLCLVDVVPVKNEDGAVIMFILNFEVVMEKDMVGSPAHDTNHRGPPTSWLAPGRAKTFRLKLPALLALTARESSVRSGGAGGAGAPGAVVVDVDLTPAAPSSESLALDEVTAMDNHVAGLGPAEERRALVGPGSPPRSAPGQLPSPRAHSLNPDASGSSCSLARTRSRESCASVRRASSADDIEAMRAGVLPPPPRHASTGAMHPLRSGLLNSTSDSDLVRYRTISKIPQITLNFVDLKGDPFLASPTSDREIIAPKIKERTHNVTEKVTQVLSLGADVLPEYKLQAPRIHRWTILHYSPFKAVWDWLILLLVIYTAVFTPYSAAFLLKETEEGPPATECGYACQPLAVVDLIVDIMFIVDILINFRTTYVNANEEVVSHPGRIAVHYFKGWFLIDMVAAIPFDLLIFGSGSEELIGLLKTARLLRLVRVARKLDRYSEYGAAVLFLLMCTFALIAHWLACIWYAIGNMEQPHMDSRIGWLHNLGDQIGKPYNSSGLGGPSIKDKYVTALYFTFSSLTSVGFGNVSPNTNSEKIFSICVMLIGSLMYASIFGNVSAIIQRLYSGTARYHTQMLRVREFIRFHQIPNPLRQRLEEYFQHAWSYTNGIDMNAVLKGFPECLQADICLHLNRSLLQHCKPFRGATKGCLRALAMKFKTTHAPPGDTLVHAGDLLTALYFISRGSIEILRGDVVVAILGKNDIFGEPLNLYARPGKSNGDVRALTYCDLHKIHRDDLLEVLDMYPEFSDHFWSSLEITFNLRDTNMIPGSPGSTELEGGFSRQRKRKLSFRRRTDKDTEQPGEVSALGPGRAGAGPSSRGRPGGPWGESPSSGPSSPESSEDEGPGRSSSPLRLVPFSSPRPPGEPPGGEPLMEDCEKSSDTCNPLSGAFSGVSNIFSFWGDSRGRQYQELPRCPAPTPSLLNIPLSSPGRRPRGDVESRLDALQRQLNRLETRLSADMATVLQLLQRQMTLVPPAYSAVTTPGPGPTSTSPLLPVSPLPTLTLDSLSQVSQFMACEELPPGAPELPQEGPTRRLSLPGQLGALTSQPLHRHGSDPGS

[10] = tested on: MON cells; assay: Viability assay (Presto Blue), MON; type: cell-based; settings: Homo sapiens, dose-response 1nM to 10μM
Experimental: (§2) Except DAOY and D283, all cell lines were plated with 2 x 10^3 cells per well 96-well and the absorbance was measured after 48 and 72 hours at drug concentrations of 5, 10, 50, 100, 200, 500nM, 1μM and 5μM.

[11] = tested on: G401, BT-16, DAOY and D283 cell lines; assay: Flow cytometry cell cycle analysis (polyploidy), other RT and MB lines; type: cell-based, human; settings: 100nM for 48 hours
Experimental: (§3) Cell cycle evaluation was performed by staining the cells with PI (Thermo Fisher Scientific, USA) according to manufacturer’s instructions. […] Data was analyzed using Modfit LT from Verity Software House. Experiments were performed in triplicates.

[12] = tested on: DAOY cells; assay: Viability assay (Presto Blue), DAOY; type: cell-based; settings: Homo sapiens, dose-response 1nM to 10μM
[13] = tested on: MON rhabdoid cells; assay: Flow cytometry cell cycle analysis (polyploidy), MON; type: cell-based, human; settings: 100nM for 3-72 hours
Experimental: as §3

[14] = tested on: MON, G401, BT-12, BT-16, DAOY and D283 cell lines; assay: Senescence beta-galactosidase assay; type: cell-based, human; settings: all cell lines (MON, G401, BT-12, BT-16, DAOY, D283); 100nM, 48 hours
Experimental: For each cell line, cells were seeded in 6-well plates in triplicates with 100,000 cells per well. Treatment medium was added the next day and incubated for 48 or 72 hrs. After incubation, cells were washed twice with 1X PBS and 1mL of the Fixation Buffer from the kit was added to each well of the plate and incubated at RT for 5 min. Cells were washed with 1X PBS and 1mL of staining solution from the kit was added to each well and incubated at 37°C without CO2 overnight. The next day, the cells were washed with 1X PBS and the numbers of blue stained cells (which indicate senescent cells) and unstained cells were counted in image J (www.imagej.nih.gov). The percentage of senescent cells was calculated.

[15] = target: TEK (Homo sapiens, UniProt Q02763, Y897S); assay: Kinase activity screening (SelectScreen), TEK; type: biochemical; settings: kinase TEK (TIE2) Y897S; ZLYTE
TEK (Homo sapiens, UniProt Q02763, Y897S), sequence (Q02763 771-1124 Y897S): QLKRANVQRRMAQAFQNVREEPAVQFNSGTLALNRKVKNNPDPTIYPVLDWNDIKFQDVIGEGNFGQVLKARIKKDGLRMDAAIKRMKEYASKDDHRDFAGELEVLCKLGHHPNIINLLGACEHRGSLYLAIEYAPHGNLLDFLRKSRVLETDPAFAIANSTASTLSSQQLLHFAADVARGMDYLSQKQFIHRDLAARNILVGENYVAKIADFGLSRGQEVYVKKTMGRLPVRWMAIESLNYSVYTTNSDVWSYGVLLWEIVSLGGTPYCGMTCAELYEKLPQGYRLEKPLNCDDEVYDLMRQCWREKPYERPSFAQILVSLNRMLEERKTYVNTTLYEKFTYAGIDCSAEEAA

[16] = target: TEK (Homo sapiens, UniProt Q02763, R849W); assay: Kinase activity screening (SelectScreen), TEK; type: biochemical; settings: kinase TEK (TIE2) R849W; LanthaScreen Binding
TEK (Homo sapiens, UniProt Q02763, R849W), sequence (Q02763 771-1124 R849W): as the sequence (Q02763 771-1124 Y897S) above, with R79W, S127Y counted along it

[17] = tested on: TEK; assay: Kinase activity screening (SelectScreen), TEK; type: biochemical; settings: kinase TEK (Tie2); ZLYTE
[18] = target: TEK (Homo sapiens, UniProt Q02763, Y1108F); assay: Kinase activity screening (SelectScreen), TEK; type: biochemical
TEK (Homo sapiens, UniProt Q02763, Y1108F), sequence (Q02763 771-1124 Y1108F): as the sequence (Q02763 771-1124 Y897S) above, with S127Y, Y338F counted along it

[19] = tested on: G401 cells; assay: Viability assay (Presto Blue), G401; type: cell-based; settings: Homo sapiens, G-401, dose-response 1nM to 10μM
Experimental: as §2

[20] = tested on: PLK4 mRNA expression in MON rhabdoid cells; assay: qRT-PCR for PLK4 transcript in treated MON cells; type: cell-based, human; settings: 10, 50, 100 and 500nM for 24, 48 and 72 hours
Experimental: The expression of PLK4 (Hs00179514_m1) in each cell line was verified by TaqMan GE assays (Thermo Fisher Scientific, USA) using the housekeeping gene GAPDH (Hs02758991_g1) as reference. Total RNA (2μg) was used to make cDNA using the Applied Biosystems High Capacity RNA-to-cDNA kit (Thermo Fisher Scientific). Reactions were performed in triplicate with adequate positive and negative controls. The normalized expression levels were calculated by the ΔΔCt method using the housekeeping gene and a pool of all samples as calibrator.

[21] = tested on: G401 RTK cells; assay: Confluency assay (IncuCyte ZOOM), G401; type: cell-based, human; settings: increasing concentrations starting at 31.25nM, 48 hours, p-value=0.004
Experimental: For further evaluation of the effect of the PLK4 inhibitor over tumor cell proliferation, confluency was measured over a 48 hour period. MON, BT-12, G401 and DAOY cells were plated in 96-well plates with a density of 6 x 10^4 per well. […] Confluency was monitored for 48 hours by taking phase contrast images every 2 hours and measured using an IncuCyte ZOOM system (Essen BioScience, USA). Experiments were performed in triplicates.

[22] = tested on: MON rhabdoid cells; assay: Immunofluorescence for gamma-tubulin (centriole number), MON; type: cell-based, human; settings: 48 hours
Experimental: as §1

[23] = tested on: D283 cells; assay: Colony formation assay, D283; type: cell-based, human; settings: 50nM
Experimental: For proliferation assay DAOY was plated with 5 x 10^4 cells per well and D283 was plated with 5 x 10^5 cells per well.

DDR2, sequence (Q16832 22-855): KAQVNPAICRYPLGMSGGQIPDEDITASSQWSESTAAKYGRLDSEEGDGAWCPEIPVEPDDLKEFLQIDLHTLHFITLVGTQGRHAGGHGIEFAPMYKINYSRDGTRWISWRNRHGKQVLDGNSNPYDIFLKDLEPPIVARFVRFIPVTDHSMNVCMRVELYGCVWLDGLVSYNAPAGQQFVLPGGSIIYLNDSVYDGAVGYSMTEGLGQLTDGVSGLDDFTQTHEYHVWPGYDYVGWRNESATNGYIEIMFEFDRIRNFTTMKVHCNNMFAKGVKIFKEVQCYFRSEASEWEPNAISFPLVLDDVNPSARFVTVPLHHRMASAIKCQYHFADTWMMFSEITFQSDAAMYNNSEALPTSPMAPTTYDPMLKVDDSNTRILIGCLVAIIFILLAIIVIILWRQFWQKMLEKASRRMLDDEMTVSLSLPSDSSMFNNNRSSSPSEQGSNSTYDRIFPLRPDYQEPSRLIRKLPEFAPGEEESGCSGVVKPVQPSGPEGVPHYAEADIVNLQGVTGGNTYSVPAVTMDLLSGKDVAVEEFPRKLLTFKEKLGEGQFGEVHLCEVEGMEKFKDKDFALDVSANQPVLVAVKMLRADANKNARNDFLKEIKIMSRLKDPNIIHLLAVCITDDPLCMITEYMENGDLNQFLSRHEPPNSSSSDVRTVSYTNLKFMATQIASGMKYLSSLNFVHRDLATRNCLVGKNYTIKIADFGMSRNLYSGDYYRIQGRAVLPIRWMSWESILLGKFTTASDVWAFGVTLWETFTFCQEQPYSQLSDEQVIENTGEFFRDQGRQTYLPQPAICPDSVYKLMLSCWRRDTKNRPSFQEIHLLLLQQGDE
various kinases (Homo sapiens, UniProt O00311), sequence (O00311 whole entry): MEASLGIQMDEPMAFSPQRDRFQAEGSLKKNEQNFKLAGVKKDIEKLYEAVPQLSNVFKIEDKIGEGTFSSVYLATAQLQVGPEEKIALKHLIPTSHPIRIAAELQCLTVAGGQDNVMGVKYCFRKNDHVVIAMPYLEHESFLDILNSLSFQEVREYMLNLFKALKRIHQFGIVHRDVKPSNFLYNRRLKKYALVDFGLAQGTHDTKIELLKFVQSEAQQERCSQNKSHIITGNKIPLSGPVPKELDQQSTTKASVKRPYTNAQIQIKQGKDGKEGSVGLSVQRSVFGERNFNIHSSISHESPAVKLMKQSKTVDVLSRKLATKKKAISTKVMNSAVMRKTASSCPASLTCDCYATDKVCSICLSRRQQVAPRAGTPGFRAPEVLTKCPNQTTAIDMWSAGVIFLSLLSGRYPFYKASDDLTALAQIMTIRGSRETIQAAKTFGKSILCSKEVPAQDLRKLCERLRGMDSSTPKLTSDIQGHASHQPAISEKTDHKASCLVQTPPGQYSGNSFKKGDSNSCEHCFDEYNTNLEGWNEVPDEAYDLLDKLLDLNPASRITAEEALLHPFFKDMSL

COc1ccc2c(c1)[C@]1(C[C@H]1c1ccc3c(/C=C/c4ccc(CN5C[C@@H](C)O[C@@H](C)C5)cc4)n[nH]c3c1)C(=O)N2 [CFI-400945]
IC50 ([1]; 10-point titration): 315 nM
% Inhibition ([1]; DDR2, LanthaScreen Binding): 9% and 18%
% Inhibition [2]: 13% and 16%
% Inhibition [3]: 9% and 13%
% Inhibition [4]: 10%
% Inhibition [5]: 50% and 36%
% Inhibition [6]: 9% and 8%
% Inhibition [7]: 10% and 0%
paradoxical effect on centriole number [8]: not observed
IC50 [9]: > 500 nM
IC50 [10]: 5130 nM
polyploidy (cell cycle analysis) [11]: extreme polyploidy
IC50 [12]: 94 nM
polyploidy (cell cycle analysis) [13]: time-dependent induction of polyploidy
senescent cells (beta galactosidase) [14]: significant increase
% Inhibition Average [15]: 31%
% Inhibition Duplicate #1 [15]: 29%
% Inhibition Duplicate #2 [15]: 32%
% Inhibition Duplicate #2 [16]: 87%
% Inhibition Duplicate #2 [17]: 55%
IC50 [18]: 109 nM
IC50 [19]: 3790 nM
PLK4 expression (qPCR) vs control [20]: time dependent decrease
FC, delay in reaching confluency [21]: 1.78
centrioles' number ([22]; 100nM): slight increase
centrioles' number ([22]; 500nM): significant depletion
colony formation [23]: Complete inhibition
